The values that follow come from patent US12473295B2, “Substituted straight chain spiro derivatives” (Janssen Pharmaceutica NV, priority 2019, dated 2025).

The subject of series [1] is MEIS1 mRNA. The series is described as follows: MEIS1 mRNA expression assay (Quantigene Singleplex) in MOLM14 cells.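 Further: MEIS1 transcript levels read by probe hybridization and normalized to RPL28 mRNA, with IC50 fitted to fold changes across a rising compound concentration series.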 The following applies: 48 hours incubation. Format: cell-based, human.
Series [2] concerns the target menin/MLL (terbium chelate-labeled menin, FITC-MBM1 peptide) (Homo sapiens (Human), UniProt O00255). In words: Menin/MLL homogenous time-resolved fluorescence (HTRF) assay.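 Further: IC50 from percent inhibition of HTRF signal, normalized between wells without competitor and wells with a saturating competitor that displaces FITC-MBM1 from His-tagged menin.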 Format: binding.
Series [3] is described as follows: Metabolic stability in human liver microsomes. As to conditions: human liver microsomes 0.5 mg/mL, 1 μM test compound, pH 7.4; for microsomal CLint at 1 μM: read-out: Human LM Clint. The series is classed as in vitro ADME. The method, then: (§1) 4) Metabolic Stability in Human/Mouse Liver Microsomes
(§2) The objective of this study is to measure in vitro metabolic stability of test compound(s) in human and mouse liver microsomes and provide quantitative information on the rate of metabolic turnover (i.e. determination of the apparent intrinsic clearance of test).
(§3) Test items were prepared at a stock concentration of 10 mM in DMSO. For determination of metabolic turnover, a final working solution was prepared by adding 2 μL of 10 mM DMSO stock solution for test compound or positive control compounds to 198 μL of acetonitrile (100 μM final concentration).
(§4) Incubations were performed as follows: First, liver microsomes were thawed on ice and a master solution containing liver microsomes in 100 mM PBS (phosphate-buffered saline) at pH 7.4 is prepared. Next, the liver microsomes solution was added to the incubation plates and 10 mM NADPH (Nicotinamide-adenine dinucleotide phosphate) was added (MW: 833.4 g/mol; Roche Diagnostics GmbH, Germany. Dissolved in phosphate buffer (100 mmol/L, pH 7.4)). The mixture was mixed for 10 seconds and pre-warmed in the incubation plate at 37° C. for 10 minutes. The metabolic reaction was initiated with the addition of 5 μL of the 100 μM working solution for test compound or positive control compounds to incubation plate (final test item concentration=1 μM). The reaction final mixture should contain 1 mM NADPH, 0.5 mg/mL microsomes protein and 1 μM test compound or positive control compound in 100 mM PBS at pH 7.4. The percentage of organic solvent in incubation mixture is 1% with DMSO ≤0.02%.
(§5) The reaction was quenched by transferring 50 μL of the incubated mixture at selected time points into the quenching plate containing 200 μL of cold methanol. After sampling of all the timepoints the quenching plate was centrifuged at 4000 rpm for 40 minutes to precipitate protein. A total of 90 μL of the supernatant was transferred to an analysis plate and ultra-pure H2O water is added into each well for LC/MS/MS analysis. All incubations and analysis were performed in duplicate.
(§6) All calculations were carried out using Microsoft Excel. The slope value, k, was determined by linear regression of the natural logarithm of the remaining percentage of the parent drug vs. incubation time curve.
(§7) The in vitro half-life (in vitro tin) was determined from the slope value: in vitro t1/2=−(0.693/k)
(§8) Conversion of the in vitro tin (in min) into the in vitro intrinsic clearance (in vitro CLint, in μL/min/mg proteins) was done using the following equation: […]
(Microsomes from liver hold many membrane-bound enzymes, among them those of drug oxidation.)

Series [4] concerns OCI-AML3 cells. In words: Proliferation assay (spheroid growth, 8 days), OCI-AML3. Format: cell-based, human. As to conditions: OCI-AML3, 8 days. The method in brief: (§9)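 Spheroid size on day 8, taken as live-cell imaging confluence, served as readout after 8-day compound exposure (0.3% DMSO, 37 °C, 5% CO2) in round-bottom low-attachment wells. Seeding was 200 cells for MOLM14 and OCI-AML3, 300 for KO-52. IC50 came from % effect versus DMSO and reference baseline, fitted with variable slope.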

For series [5], the system named is MOLM14 cells. In words: Proliferation assay (spheroid growth, 8 days), MOLM14.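 Further: spheroid size read as confluence by live-cell imaging, compounds added at a range of concentrations with 0.3% DMSO, DMSO-treated wells = 0%, highest reference dose = low control.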 The following applies: MOLM14, 8 days, read-out: spheroid assay_OneTime MOLM14 IC50. Format: cell-based, human.
Series [6] deals with KO-52 cells. In words: Proliferation assay (spheroid growth, 8 days), KO-52 control cell line. Format: cell-based, human. As to conditions: read-out: spheroid assay_OneTime KO-52 IC50. The method in brief: as §9
Series [7] in a line: Metabolic stability in mouse liver microsomes. The following applies: mouse liver microsomes 0.5 mg/mL, 1 μM test compound, pH 7.4; for microsomal CLint at 1 μM: read-out: Mouse LM Clint. Format: in vitro ADME. Here is the method: as §1, §2, §3, §4, §5, §6, §7, §8
Series [8] deals with hERG potassium channel (Homo sapiens (Human), UniProt Q12809). The series is described as follows: Effect on membrane potassium current IKr in hERG transfected CHO cells, Protocol 1 (QPatch). Format: cell-based. A digest of the protocol:
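Whole-cell automated patch clamp on CHO cells stably expressing hERG, held at −80 mV; the value is the tail current at −40 mV after a 2 s step to +60 mV, at pH 7.4 bath and pH 7.2 pipette. After 0.3% DMSO control, compound was applied at 3×10^−7 M, 3×10^−6 M, 10^−5 M and 3×10^−5 M, 5 min each. IC50 comes from a non-linear least-squares fit of block versus vehicle.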
A general note: Block of hERG is tested as a sign of cardiac risk.

Series [9] can be described thus: Mouse PK (in vivo T1/2 and oral bioavailability). As to conditions: fasted male CD-1 mice, formulating agent HP-β-CD; for half-life: single IV 0.5 or 1.0 mg/kg; for bioavailability: single PO 5 mg/kg. The method, then:
3) Mouse PK (In Vivo T1/2 and Oral Bioavailability)
In vivo pharmacokinetics (PK) were assessed in fasted male CD-1 mice (age 6-8 weeks) following a single intravenous (IV, 0.5 or 1.0 mg/kg administered at 2.5 ml/kg) or oral (PO, 5 mg/kg administered at 10 ml solution/kg) dose of test article formulated in a 20% (w:vol) HP-β-CD solution or in Pyrogen free water.
Plasma and/or whole blood samples were collected from the dorsal metatarsal vein at desired timepoints via serial capillary microsampling (approx. 0.03 mL) using EDTA as an anticoagulant. Concentrations of compound in the plasma and blood samples were analyzed using a qualified LC-MS/MS method. In silico analysis of main pharmacokinetic parameters was performed using WinNonlin (Phoenix™, version 6.1) or similar software. (Results see Table 4)

Setting [10] is: read-out: HTRF-30 min incubation IC50, 30 min incubation.
[11] abbreviates: HTRF-30 min incubation IC50, 30 min incubation.

The structures appear in SMILES notation. Where a name gives a salt, the structure may show the parent alone. Read-outs that look alike come from different tables or passages of the source.

Sequence of menin/MLL (terbium chelate-labeled menin, FITC-MBM1 peptide) (O00255 other isoform, or with tags, fused parts or gaps): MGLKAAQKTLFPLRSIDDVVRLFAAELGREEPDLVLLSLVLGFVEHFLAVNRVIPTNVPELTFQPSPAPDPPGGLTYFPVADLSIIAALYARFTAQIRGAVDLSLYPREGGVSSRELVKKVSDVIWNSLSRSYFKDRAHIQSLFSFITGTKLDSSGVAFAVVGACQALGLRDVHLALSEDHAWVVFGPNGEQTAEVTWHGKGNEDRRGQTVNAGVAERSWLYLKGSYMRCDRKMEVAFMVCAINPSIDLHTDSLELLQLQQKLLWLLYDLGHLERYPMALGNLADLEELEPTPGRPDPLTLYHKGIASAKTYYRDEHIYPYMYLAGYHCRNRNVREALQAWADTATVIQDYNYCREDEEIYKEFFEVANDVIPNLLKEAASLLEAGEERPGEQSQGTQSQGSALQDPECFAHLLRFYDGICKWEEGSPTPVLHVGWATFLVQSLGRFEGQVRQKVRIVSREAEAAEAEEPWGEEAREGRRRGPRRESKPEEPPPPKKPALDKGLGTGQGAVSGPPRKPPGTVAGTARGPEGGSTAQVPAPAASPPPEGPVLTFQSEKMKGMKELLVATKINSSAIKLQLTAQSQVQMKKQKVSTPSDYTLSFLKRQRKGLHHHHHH
Sequence of hERG potassium channel (Q12809 whole entry): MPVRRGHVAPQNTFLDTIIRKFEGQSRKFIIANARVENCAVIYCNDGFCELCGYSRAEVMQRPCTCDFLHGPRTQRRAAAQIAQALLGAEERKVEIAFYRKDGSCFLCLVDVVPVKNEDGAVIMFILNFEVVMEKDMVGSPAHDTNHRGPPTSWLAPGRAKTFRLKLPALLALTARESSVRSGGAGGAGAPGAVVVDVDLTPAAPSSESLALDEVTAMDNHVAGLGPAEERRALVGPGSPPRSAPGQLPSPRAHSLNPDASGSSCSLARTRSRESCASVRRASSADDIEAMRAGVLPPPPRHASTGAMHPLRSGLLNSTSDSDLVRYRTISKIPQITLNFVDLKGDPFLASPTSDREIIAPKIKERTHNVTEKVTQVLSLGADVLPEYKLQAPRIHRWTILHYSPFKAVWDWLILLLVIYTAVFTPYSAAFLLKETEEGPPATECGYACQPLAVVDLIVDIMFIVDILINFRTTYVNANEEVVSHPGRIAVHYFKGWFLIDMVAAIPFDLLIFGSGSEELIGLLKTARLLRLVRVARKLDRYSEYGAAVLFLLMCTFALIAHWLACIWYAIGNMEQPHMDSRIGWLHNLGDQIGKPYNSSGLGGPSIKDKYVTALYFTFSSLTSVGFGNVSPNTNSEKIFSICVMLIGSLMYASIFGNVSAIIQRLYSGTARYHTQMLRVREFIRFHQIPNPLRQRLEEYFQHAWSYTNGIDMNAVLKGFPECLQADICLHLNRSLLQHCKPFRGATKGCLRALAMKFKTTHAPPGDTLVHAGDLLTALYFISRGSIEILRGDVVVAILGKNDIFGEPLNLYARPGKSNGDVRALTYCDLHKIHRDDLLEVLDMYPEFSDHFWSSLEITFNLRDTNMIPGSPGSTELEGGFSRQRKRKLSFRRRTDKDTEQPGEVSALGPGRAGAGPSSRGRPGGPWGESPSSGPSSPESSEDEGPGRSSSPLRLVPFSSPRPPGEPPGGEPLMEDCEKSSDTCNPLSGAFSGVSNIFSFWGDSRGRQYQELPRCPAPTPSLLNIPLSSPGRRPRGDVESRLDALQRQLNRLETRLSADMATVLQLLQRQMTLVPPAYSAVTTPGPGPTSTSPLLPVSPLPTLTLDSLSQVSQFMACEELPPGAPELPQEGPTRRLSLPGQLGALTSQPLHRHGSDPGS

For `CCN(C(=O)c1cc(F)ccc1Oc1nncnc1N1CCC2(C1)CN([C@H](CCO)C(C)C)C2)C(C)C` (single isomer, unassigned) [Compound 214, (*R)—N-ethyl-5-fluoro-2-((5-(2-(1-hydroxy-4-methylpentan-3-yl)-2,6-diazaspiro[3.4]octan-6-yl)-1,2,4-triazin-6-yl)oxy)-N-isopropylbenzamide], the IC50 (in general, the concentration at which inhibition is half-maximal) in [1] is 140 nM; in series [2] (setting [10]), 0.49 nM; in series [4] it was 380 nM; in series [5], 120 nM; in series [6] it was over 15 µM. Moreover, the “Human LM Clint” value in series [3] worked out at 44 µL/min/mg. Besides, the “Mouse LM Clint” value in series [7] amounted to 80 µL/min/mg.
Regarding `CCN(C(=O)c1cc(F)ccc1Oc1nncnc1N1CCC2(C1)CN([C@H](CCCN(C)C(COC)COC)C(C)C)C2)C(C)C` [Compound 161, (R)-2-((5-(2-(6-((1,3-dimethoxypropan-2-yl)(methyl)amino)-2-methylhexan-3-yl)-2,6-diazaspiro[3.4]octan-6-yl)-1,2,4-triazin-6-yl)oxy)-N-ethyl-5-fluoro-N-isopropylbenzamide fumarate], the IC50 in series [1] (Homo sapiens, MOLM-14, 48 h) is 41 nM; in series [2] (setting [11]) it was 0.23 nM; in series [4] (Homo sapiens, OCI-AML-3, […]), 55 nM; in series [5] (Homo sapiens, MOLM-14, […]), 16 nM; in [6] (Homo sapiens, […]) it was over 15 µM. The microsomal CLint at 1 μM in series [3] stood at 70 µL/min/mg; in series [7], 55 µL/min/mg.
Turning to `CCN(C(=O)c1cc(F)ccc1Oc1nnccc1N1CCC2(C1)CN([C@H](CCCN(C)CCOC)C(C)C)C2)C(C)C` (single isomer, unassigned) [Compound 83], the IC50 in series [1] (Homo sapiens, MOLM-14, 48 h) stood at 92 nM; in series [8], 6 µM; in [4] (Homo sapiens, OCI-AML-3, […]), 420 nM; in series [5] (Homo sapiens, MOLM-14, […]), 170 nM; in series [6] (Homo sapiens, […]) it was 6.24 µM. In addition, the microsomal CLint at 1 μM in [3] was 539 µL/min/mg; in series [7], over 1000 µL/min/mg.
With `CCN(C(=O)c1cc(F)ccc1Oc1nncnc1N1CCC2(C1)CN([C@H](CCCNC(C)=O)C(C)C)C2)C(C)C` [Compound 6, (R)-2-((5(2-(6-acetamido-2-methylhexan-3-yl)-2,6-diazaspiro[3.4]octan-6-yl)-1,2,4-triazin-6-yl)oxy)-N-ethyl-5-fluoro-N-isopropylbenzamide formate], the IC50 is 360 nM in series [1] (Homo sapiens, MOLM-14, 48 h); 0.61 nM in [2] (setting [11]); 1860 nM in series [4] (Homo sapiens, OCI-AML-3, […]); 480 nM in series [5] (Homo sapiens, MOLM-14, […]); over 15 µM in series [6] (Homo sapiens, […]). For the same compound, the microsomal CLint at 1 μM amounted to 35 µL/min/mg in [3] and 28 µL/min/mg in series [7].
`CCN(C(=O)c1cc(F)ccc1Oc1nncnc1N1CCC2(C1)CN([C@H](CCCN[C@H](C)COC)C(C)C)C2)C(C)C.O=C(O)/C=C/C(=O)O` [Compound 112]: in series [9], the half-life – broadly, the time needed for the level to fall by half in the phase considered – was 372 min and the bioavailability (as a rule, dose-corrected exposure relative to a reference, in per cent) worked out at 4%.
`CC(C)[C@@H](CCCN(C)C)N1CC2(CCN(c3ncnnc3Oc3ccc(F)cc3C(=O)N(C(C)C)C(C)C)C2)C1` (single isomer, unassigned) [Compound 396, (*R)-2-((5-(2-(6-(dimethylamino)-2-methylhexan-3-yl)-2,6-diazaspiro[3.4]octan-6-yl)-1,2,4-triazin-6-yl)oxy)-5-fluoro-N,N-diisopropylbenzamide oxalate]: the IC50 was 17 nM in series [1] (Homo sapiens, MOLM-14, 48 h); over 30.2 µM in [8]; 0.08 nM in series [2] (setting [11]); 140 nM in series [4] (Homo sapiens, OCI-AML-3, […]); 23 nM in [5] (Homo sapiens, MOLM-14, […]); 8.51 µM in series [6] (Homo sapiens, […]). In addition, the microsomal CLint at 1 μM in series [3] was 22 µL/min/mg; in series [7], under 7.5 µL/min/mg.
On to `CNC(=O)CC[C@@H](C(C)C)N1CC2(CCN(c3ncnnc3Oc3ccc(F)cc3-c3cncnc3C3CC3)C2)C1` (single isomer, unassigned) [Compound 45, (*S)-4-(6-(6-(2-(4-cyclopropylpyrimidin-5-yl)-4-fluorophenoxy)-1,2,4-triazin-5-yl)-2,6-diazaspiro[3.4]octan-2-yl)-N,5-dimethylhexanamide], for which the IC50 in series [1] is 210 nM; in series [8] it was 12.6 µM; in series [2] (setting [10]), 0.37 nM; in series [4], 1250 nM; in series [5], 220 nM; in series [6], over 15 µM. Further, the “Human LM Clint” value in series [3] was 43 µL/min/mg. In addition, the “Mouse LM Clint” value in series [7] amounted to 110 µL/min/mg.
In the case of `CCN(C(=O)c1cc(F)ccc1Oc1nncnc1N1CCC2(C1)CN([C@H](CCCNCCC(F)F)C(C)C)C2)C(C)C.O=C(O)/C=C/C(=O)O` [Compound 114], in [9], the half-life was 570 min and the bioavailability was found to be 8.7%.
Consider `CCN(C(=O)c1cc(F)ccc1Oc1nncnc1N1CCC2(C1)CN([C@H](CCCNCCOC)C(C)C)C2)C(C)C` [Compound 397, (R)-N-ethyl-5-fluoro-N-isopropyl-2-((5-(2-(6-((2-methoxyethyl)amino)-2-methylhexan-3-yl)-2,6-diazaspiro[3.4]octan-6-yl)-1,2,4-triazin-6-yl)oxy)benzamide fumarate], for which the IC50 was 27 nM in series [4] (fumarate); 15 nM in series [5] (Homo sapiens, MOLM-14, […]); over 15 µM in [6] (Homo sapiens, […]). Also, the microsomal CLint at 1 μM in series [7] was under 7.5 µL/min/mg.
Regarding `CC(C)[C@@H](CCCN(C)C)N1CC2(CCN(c3ncnnc3Oc3ccc(F)cc3C(=O)N(C(C)C)C(C)C)C2)C1` (single isomer, unassigned) [Compound 102, (*R)-2-((5(2-(6-(dimethylamino)-2-methylhexan-3-yl)-2,6-diazaspiro[3.4]octan-6-yl)-1,2,4-triazin-6-yl)oxy)-5-fluoro-N,N-diisopropylbenzamide fumarate], the IC50 in series [1] (Homo sapiens, MOLM-14, 48 h) was 33 nM; in series [2] (setting [11]) it was 0.11 nM; in series [4] (Homo sapiens, OCI-AML-3, […]) it was 110 nM; in series [5] (Homo sapiens, MOLM-14, […]), 16 nM; in series [6] (Homo sapiens, […]), over 15 µM. For the same compound, the half-life in series [9] was 660 min. For the same compound, the bioavailability in series [9] came out at 9.7%.
